The results in this text go back to patent US8802696B2, “7-([1,2,4]triazolo[1,5-a]pyridin-6-yl)-4-(3,4-dichlorophenyl)-1,2,3,4-tetrahydroisoqu inoli and use thereof” (Albany Molecular Research, Inc., priority 2009, dated 2014).

One experiment concerns the target T1, hSERT (Homo sapiens, UniProt P31645).
T1 construct: expressed in transfected cells; host or cells: HEK-293
As to the kind of experiment: SERT radioligand binding assay ([125I]RTI-55, HEK-293 membranes). Particulars: recombinant HEK-293 membranes. Here is the method:
(§1) Recombinant HEK-293 cells expressing either the hSERT, hDAT, or hNET proteins were harvested from T-175 flasks as follows. The medium was removed from the flasks and the cells rinsed with HBSS without Ca and without Mg. The cells were then incubated for 5-10 minutes in 10 mM Tris-Cl, pH 7.5, 5 mM EDTA before the cells were lifted with a combination of pipetting and scraping, as needed. The cell suspension was collected into centrifuge bottles and homogenized for 30 seconds with a Polytron homogenizer. The suspension was centrifuged for 30 minutes at 32,000×g, 4° C. The supernatant was decanted and the pellet resuspended and homogenized in 50 mM Tris-Cl, pH 7.5, 1 mM EDTA for 10 seconds. The suspension was then centrifuged again for 30 minutes at 32,000×g, 4° C. The supernatant was decanted and the pellet resuspended in 50 mM Tris-Cl, pH 7.5, 1 mM EDTA and briefly homogenized. […]
(§2) Compounds were dissolved in 100% DMSO at a concentration 100 times the desired highest assay concentration, serially diluted 1:3 in 100% DMSO, and 0.4 μl/well of each solution was dispensed to a Nunc polypropylene, round bottom, 384-well plate. […] The plates were air-dried overnight, 12 μl/well of MicroScint scintillation fluid added, and the plates counted in a Trilux.
The radioligand concentration chosen for each assay corresponds to the Kd concentration determined through saturation binding analysis for each assay.

The next experiment concerns the target T2, hDAT (Homo sapiens, UniProt Q01959).
T2 construct: expressed in transfected cells; host or cells: HEK-293
Description: DAT radioligand binding assay ([125I]RTI-55, HEK-293 membranes). Particulars: recombinant HEK-293 membranes. Here is the method: as §1, with “seconds.” for “seconds. The suspension was then centrifuged again for 30 minutes at 32,000×g, 4° C. The supernatant was decanted and the pellet resuspended in 50 mM Tris-Cl, pH 7.5, 1 mM EDTA and briefly homogenized.”
as §2
(§3) The raw data was normalized to percent inhibition using control wells defining 0% (DMSO only) and 100% (selective inhibitor) inhibition which were run on each plate. […] The radioligand concentration chosen for each assay corresponds to the Kd concentration determined through saturation binding analysis for each assay.

The target in the next experiment is T3, hNET (Homo sapiens, UniProt P23975).
T3 construct: expressed in transfected cells; host or cells: HEK-293
T3 sequence (P23975 whole entry): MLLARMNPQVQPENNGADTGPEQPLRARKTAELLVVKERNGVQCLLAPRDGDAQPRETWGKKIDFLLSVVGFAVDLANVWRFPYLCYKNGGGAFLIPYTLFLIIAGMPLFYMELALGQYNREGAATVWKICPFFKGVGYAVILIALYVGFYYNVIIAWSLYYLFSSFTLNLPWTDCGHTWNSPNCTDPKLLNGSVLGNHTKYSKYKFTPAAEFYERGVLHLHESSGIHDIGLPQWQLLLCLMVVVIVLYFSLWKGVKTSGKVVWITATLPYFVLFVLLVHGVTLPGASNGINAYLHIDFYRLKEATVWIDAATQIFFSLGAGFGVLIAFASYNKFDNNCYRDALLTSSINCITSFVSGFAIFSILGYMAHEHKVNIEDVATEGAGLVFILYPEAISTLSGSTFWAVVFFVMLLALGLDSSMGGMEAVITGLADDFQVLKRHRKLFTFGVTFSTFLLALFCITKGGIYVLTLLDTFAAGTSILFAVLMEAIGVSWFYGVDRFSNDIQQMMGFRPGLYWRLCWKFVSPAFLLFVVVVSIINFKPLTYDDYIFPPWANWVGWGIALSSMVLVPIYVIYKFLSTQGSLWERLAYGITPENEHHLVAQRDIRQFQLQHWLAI
Description: NET radioligand binding assay ([3H]nisoxetine, HEK-293 membranes). Particulars: recombinant HEK-293 membranes. Here is the method:
as §1, with “seconds.” for “seconds. The suspension was then centrifuged again for 30 minutes at 32,000×g, 4° C. The supernatant was decanted and the pellet resuspended in 50 mM Tris-Cl, pH 7.5, 1 mM EDTA and briefly homogenized.”
Compounds were dissolved in 100% DMSO at a concentration 100 times the desired highest assay concentration, serially diluted 1:3 in 100% DMSO, and 1.0 μl/well of each solution was dispensed to a Nunc polypropylene, round bottom, 384-well plate. […] The plates were air-dried overnight, 12 μl/well of MicroScint scintillation fluid added, and the plates counted in a Trilux.
as §3

The next experiment deals with SERT. As to the kind of experiment: Ex vivo binding occupancy assay, SERT ([3H]citalopram, brain tissue). To be noted: dose 1 mg/kg, time point 3 hour, ex vivo binding in brain tissue. The source says: The general procedure for brain tissue collection and transporter occupancy assessment is briefly described as follows. Mice were sacrificed by asphyxiation in CO2, rats by decapitation and dogs by IV injection of euthanasia solution. For mice and rats, after the brains were removed from the skull, the forebrain tissue (removal of the brainstem and cerebellum) was used for SERT, NET, and DAT occupancy assessment. In dogs, the striatum was dissected for DAT occupancy and the remaining forebrain tissue (without the striatum, brainstem, and cerebellum) was used for SERT and NET occupancy assessment. The brain tissues were frozen in chilled isopentane and stored at −80° C. until homogenization.
The brain tissues were thawed and then homogenized using a polytron homogenizer (Kinematica). Sample aliquots were frozen immediately and stored at −80° C. Protein content was measured for each sample using a Coomassie protein assay kit (Pierce).
On the day of ex vivo binding for occupancy assessment, frozen sample aliquots were thawed and needle homogenized, and 100 μg of the tissue was incubated for SERT, NET, and DAT binding under assay conditions summarized in Table 1. […] Radioligand was measured using a Wallac Microbeta liquid scintillation counter.
The specific binding was calculated by subtracting the value of the non-specific binding from that of the total binding in each sample. […]

Structures can show the parent of a compound that is named as a salt.

T1 sequence (P31645 whole entry): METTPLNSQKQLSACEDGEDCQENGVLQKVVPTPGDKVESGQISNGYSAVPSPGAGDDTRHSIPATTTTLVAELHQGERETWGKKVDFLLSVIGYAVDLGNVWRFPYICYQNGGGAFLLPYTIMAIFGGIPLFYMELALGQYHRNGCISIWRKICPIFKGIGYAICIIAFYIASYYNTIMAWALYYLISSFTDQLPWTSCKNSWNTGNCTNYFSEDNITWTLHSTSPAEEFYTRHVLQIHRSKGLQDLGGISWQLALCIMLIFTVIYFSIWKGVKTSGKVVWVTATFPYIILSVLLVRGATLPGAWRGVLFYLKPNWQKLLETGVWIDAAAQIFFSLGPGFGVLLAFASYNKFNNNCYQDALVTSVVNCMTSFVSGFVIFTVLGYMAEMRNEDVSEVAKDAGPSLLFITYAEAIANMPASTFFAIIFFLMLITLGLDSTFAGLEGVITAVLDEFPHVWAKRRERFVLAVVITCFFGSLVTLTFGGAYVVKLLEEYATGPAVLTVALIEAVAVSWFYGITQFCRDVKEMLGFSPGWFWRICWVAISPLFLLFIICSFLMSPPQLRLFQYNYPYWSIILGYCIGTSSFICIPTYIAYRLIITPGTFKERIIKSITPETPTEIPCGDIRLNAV
T2 sequence (Q01959 whole entry): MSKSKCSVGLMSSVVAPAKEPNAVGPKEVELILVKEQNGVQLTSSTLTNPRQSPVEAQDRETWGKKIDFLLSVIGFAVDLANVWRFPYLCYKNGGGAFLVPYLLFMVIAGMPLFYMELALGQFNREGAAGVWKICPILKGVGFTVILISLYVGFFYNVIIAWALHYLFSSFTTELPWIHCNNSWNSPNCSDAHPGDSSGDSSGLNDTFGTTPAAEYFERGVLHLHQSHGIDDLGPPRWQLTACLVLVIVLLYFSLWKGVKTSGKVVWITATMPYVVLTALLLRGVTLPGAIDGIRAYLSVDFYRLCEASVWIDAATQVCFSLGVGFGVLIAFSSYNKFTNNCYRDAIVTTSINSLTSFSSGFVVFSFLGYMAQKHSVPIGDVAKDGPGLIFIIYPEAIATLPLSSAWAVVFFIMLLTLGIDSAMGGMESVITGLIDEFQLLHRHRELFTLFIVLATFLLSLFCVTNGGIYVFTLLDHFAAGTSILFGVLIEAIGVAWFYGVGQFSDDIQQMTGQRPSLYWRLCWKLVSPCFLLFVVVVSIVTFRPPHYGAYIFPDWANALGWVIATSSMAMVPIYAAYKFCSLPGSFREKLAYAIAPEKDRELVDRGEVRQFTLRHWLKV

In the case of `Clc1ccc(C2CNCc3cc(-c4ccc5ncnn5c4)ccc32)cc1Cl` (single isomer, unassigned; (-)) [Example 1 (−)-enantiomer, (−)-7-([1,2,4]triazolo[1,5-a]pyridin-6-yl)-4-(3,4-dichlorophenyl)-1,2,3,4-tetrahydroisoquinoline], the IC50 amounted to 4.2 nM at hSERT, 105 nM at hDAT and 4.8 nM on hNET. For the same molecule, the “SERT Occupancy %” value in the experiment on SERT came out at 41%.

For `Clc1ccc(C2CNCc3cc(-c4ccc5ncnn5c4)ccc32)cc1Cl` (single isomer, unassigned; enantiomer 7) [Example 1 (+)-enantiomer, 7-([1,2,4]triazolo[1,5-a]pyridin-6-yl)-4-(3,4-dichlorophenyl)-1,2,3,4-tetrahydroisoquinoline, L-tartrate salt], the IC50 at hSERT came out at 1.8 nM; on hDAT, 30.8 nM; at hNET, 26 nM. Moreover, the “SERT Occupancy %” value in the experiment on SERT (L-tartrate salt) came to 75%.

In general, IC50 refers to the concentration needed to halve the response being measured.
